Results: paper PMC6271966, “Synthesis and Biological Activity of Some Bile Acid-Based Camptothecin Analogues” (Molecules, 2014)

Legend:
[1] = tested on: human hepatoma cell line (SMMC-7721); test: MTT cytotoxicity assay, SMMC-7721; type: cell-based; conditions: SMMC-7721, 72 h, read-out: In Vitro Cytotoxicity (IC50, µM) SMMC7721
Experimental: (§1) The cytotoxicity of these compounds against three cancer cell lines was assayed using a conventional microtitre plate tetrazolium cytotoxicity assay. The human hepatoma cancer cell line (SMMC-7721), the colon cancer cell line (HCT-116), and the human breast cancer cell line (MCF-7) were provided by The Chinese Academy of Sciences cell bank. These cells were plated at a density of 1 × 10^5 cells/mL and incubated in a 96-well late for 24 h (37 °C, 5% CO2). The cells were then exposed to various concentrations of the compounds (0.0032, 0.016, 0.08, 0.4, 2, 10, and 50 µM/mL) continuously for 72 h. After this incubation, MTT solution (20 μL, 5 mg/mL) was added to each well and incubated for a further 4 h before removing the media. Formazan crystals were then dissolved by the addition of DMSO (100 μL per well). After mixing, the absorbance was read at 540 nm on a microplate reader. These assays were performed in three independent experiments. Wells containing no drugs, or CPT, were used as negative and positive controls, respectively. The IC50 values, defined as the concentration of compounds that produced a 50% decrease in surviving cells, were calculated using the Logit-method.

[2] = tested on: human colon cancer cell line (HCT-116); test: MTT cytotoxicity assay, HCT-116; type: cell-based; conditions: HCT-116, 72 h, read-out: In Vitro Cytotoxicity (IC50, µM) HCT-116
Experimental: as §1

[3] = tested on: human breast cancer cell line (MCF-7); test: MTT cytotoxicity assay, MCF-7; type: cell-based; conditions: MCF7, 72 h, read-out: In Vitro Cytotoxicity (IC50, µM) MCF-7
Experimental: as §1

[4] = Lactone stability in rat blood serum (HPLC); type: in vitro ADME; conditions: rat, serum
Experimental: Compounds E2, F2, G2, and H2 were dissolved in DMSO (100 μL, 4 mM/L) and incubated in rat blood serum (4 mL) at 37 °C. Aliquots were taken at different time points (0, 2, 4, 6, 8, 10, 12, and 24 h) and examined by HPLC, using CPT as the reference.

[5] = Body weight and surviving mice in the H22 in vivo study; design: species or system mouse; conditions: for Mice Number End of Study: 4 mice at start
Experimental: Anti-tumour activity screens of CPT-bile acid analogues were conducted in KM mice with H22 mouse liver tumours. […] These groups (n = 4) were treated with either vehicle (control), CPT, or the CPT-bile acid analogues. Mice received i.p. treatments once every two days.

H22 mouse liver tumours = test: In vivo anti-tumour activity, H22 mouse liver tumour model; conditions: H22 KM mice, i.p. every two days
Experimental: Anti-tumour activity screens of CPT-bile acid analogues were conducted in KM mice with H22 mouse liver tumours. Briefly, female mice weighing 18–22 g were subcutaneously inoculated at the right flank with a tumour cell suspension (1 × 10^6 cells) in 0.2 mL of phosphate-buffered saline. The mice were divided into subgroups 24 h after inoculation. These groups (n = 4) were treated with either vehicle (control), CPT, or the CPT-bile acid analogues. Mice received i.p. treatments once every two days. When the tumour weight of the control group reached 1.0–1.5 g, the mice were killed and the TIR (%) calculated.

Row | SMILES | IC50 [1] [µM] | melting point [°C] | IC50 [2] [µM] | IC50 [3] [µM] | further results
1 | CC[C@@]1(OC(=O)CNC(=O)CCC(C)C2CCC3C4C(C[C@H](O)[C@]23C)[C@@]2(C)CC[C@@H](O)CC2C[C@H]4O)C(=O)OCc2c1cc1n(c2=O)Cc2cc3ccccc3nc2-1 (stereo partly drawn) [Compound E1, Camptothecin-20 (S)-O-glycine Ester-[N-(3′α,7′α,12′α-trihydroxy-24′-carbonyl-5′β-cholane)]] | 2.23 | 200 to 203 | 2.9 | 18.3 | –
2 | CC[C@@]1(OC(=O)CNC(=O)CCC(C)C2CCC3C4C(CC[C@]23C)[C@@]2(C)CC[C@@H](O)CC2C[C@@H]4O)C(=O)OCc2c1cc1n(c2=O)Cc2cc3ccccc3nc2-1 (stereo partly drawn) [Compound E3, Camptothecin-20 (S)-O-glycine Ester-[N-(3′α,7′β-dihydroxy-24′-carbonyl-5′β-cholane)]] | 2.18 | 209 to 211 | 2.4 | 61 | –
3 | CC[C@@]1(OC(=O)CNC(=O)CCC(C)C2CCC3C4C(CC[C@]23C)[C@@]2(C)CC[C@@H](O)CC2C[C@H]4O)C(=O)OCc2c1cc1n(c2=O)Cc2cc3ccccc3nc2-1 (stereo partly drawn) [Compound E4, Camptothecin-20 (S)-O-glycine Ester-[N-(3′α,7′α-dihydroxy-24′-carbonyl-5′β-cholane)]] | 2.25 | 202 to 203 | 2.88 | 20 | –
4 | CC[C@@]1(OC(=O)C(CCC(=O)OC)NC(=O)CCC(C)C2CCC3C4C(C[C@H](O)[C@]23C)[C@@]2(C)CC[C@@H](O)CC2C[C@H]4O)C(=O)OCc2c1cc1n(c2=O)Cc2cc3ccccc3nc2-1 (stereo partly drawn) [Compound F1, Camptothecin-20 (S)-O-(D-Glu (OMe)) Ester-[N-(3′α,7′α,12′α-trihydroxy-24′-carbonyl-5′β-cholane)]] | 55.7 | 195 to 196 | 70 | 40 | –
5 | CC[C@@]1(OC(=O)C(CCC(=O)OC)NC(=O)CCC(C)C2CCC3C4CCC5C[C@H](O)CC[C@]5(C)C4C[C@H](O)[C@]23C)C(=O)OCc2c1cc1n(c2=O)Cc2cc3ccccc3nc2-1 (stereo partly drawn) [Compound F2, Camptothecin-20 (S)-O-(D-Glu(OMe))Ester-[N-(3′α,12′α-dihydroxy-24′-carbonyl-5′β-cholane)]] | 2.25 | 199 to 200 | 36 | 11.8 | half-life at 97.6 µM [4]: > 24 h
6 | CC[C@@]1(OC(=O)C(CCC(=O)OC)NC(=O)CCC(C)C2CCC3C4C(CC[C@]23C)[C@@]2(C)CC[C@@H](O)CC2C[C@@H]4O)C(=O)OCc2c1cc1n(c2=O)Cc2cc3ccccc3nc2-1 (stereo partly drawn) [Compound F3, Camptothecin-20 (S)-O-(D-Glu(OMe)) Ester-[N-(3′α,7′β-dihydroxy-24′-carbonyl-5′β-cholane)]] | 12.2 | 187 to 189 | 13 | 46.3 | –
7 | CC[C@@]1(OC(=O)C(CCC(=O)OC)NC(=O)CCC(C)C2CCC3C4C(CC[C@]23C)[C@@]2(C)CC[C@@H](O)CC2C[C@H]4O)C(=O)OCc2c1cc1n(c2=O)Cc2cc3ccccc3nc2-1 (stereo partly drawn) [Compound F4, Camptothecin-20 (S)-O-(D-Glu(OMe)) Ester-[N-(3′α 7′α-dihydroxy-24′-carbonyl-5′β-cholane)]] | 2.23 | 182 to 185 | 20 | 120 | –
8 | CC[C@@]1(OC(=O)COC(=O)CCC(C)C2CCC3C4C(C[C@H](O)[C@]23C)[C@@]2(C)CC[C@@H](O)CC2C[C@H]4O)C(=O)OCc2c1cc1n(c2=O)Cc2cc3ccccc3nc2-1 (stereo partly drawn) [Compound G1, Camptothecin-20 (S)-O-acetate-[N-(3′α,7′α,12′α-trihydroxy-24′-carbonyl-5′β-cholane)]] | 0.71 | 230 to 233 | 4 | 10.9 | –
9 | CC[C@@]1(OC(=O)COC(=O)CCC(C)C2CCC3C4CCC5C[C@H](O)CC[C@]5(C)C4C[C@H](O)[C@]23C)C(=O)OCc2c1cc1n(c2=O)Cc2cc3ccccc3nc2-1 (stereo partly drawn) [Compound G2, Camptothecin-20 (S)-O-acetate-[N-(3′α,12′α-dihydroxy-24′-carbonyl-5′β-cholane)]] | 1.24 | 221 to 224 | 2.05 | 4 | half-life at 97.6 µM [4]: > 24 h
10 | CC[C@@]1(OC(=O)COC(=O)CCC(C)C2CCC3C4C(CC[C@]23C)[C@@]2(C)CC[C@@H](O)CC2C[C@@H]4O)C(=O)OCc2c1cc1n(c2=O)Cc2cc3ccccc3nc2-1 (stereo partly drawn) [Compound G3, Camptothecin-20 (S)-O-acetate-[N-(3′α,7′β-dihydroxy-24′-carbonyl-5′β-cholane)]] | 6.84 | 229 to 230 | 12.1 | 62 | –
11 | CC[C@@]1(OC(=O)COC(=O)CCC(C)C2CCC3C4C(CC[C@]23C)[C@@]2(C)CC[C@@H](O)CC2C[C@H]4O)C(=O)OCc2c1cc1n(c2=O)Cc2cc3ccccc3nc2-1 (stereo partly drawn) [Compound G4, Camptothecin-20 (S)-O-acetate-[N-(3′α,7′α-dihydroxy-24′-carbonyl-5′β-cholane)]] | 0.14 | 228 to 229 | 36 | 70 | Mice Number End of Study ([5]; dose 19.21 × 3 µmol/kg i.p.): 4; Body Weight (g) End of Study ([5]; dose 19.21 × 3 µmol/kg i.p., start of study 19.1 g): 19.4 g; Mice Number End of Study ([5]; dose 38.42 × 3 µmol/kg i.p.): 4; Body Weight (g) End of Study ([5]; dose 38.42 × 3 µmol/kg i.p., start of study 21.0 g): 21.6 g; Mice Number End of Study ([5]; dose 57.63 × 3 µmol/kg i.p.): 4; Body Weight (g) End of Study ([5]; dose 57.63 × 3 µmol/kg i.p., start of study 19.8 g): 22.1 g; TIR (%) (H22 mouse liver tumours; dose 19.21 × 3 µmol/kg): 35.45%; TIR (%) (H22 mouse liver tumours; dose 38.42 × 3 µmol/kg): 64.55%; TIR (%) (H22 mouse liver tumours; dose 57.63 × 3 µmol/kg): 71.12%
12 | CC[C@@]1(O)C(=O)OCc2c1cc1n(c2=O)Cc2cc3cc(OCCCOC(=O)CCC(C)C4CCC5C6C(C[C@H](O)C45)C4CC[C@@H](O)CC4C[C@H]6O)ccc3nc2-1 (stereo partly drawn) [Compound H1, 10-O-(3-O-(3′α,7′α,12′α-Trihydroxy-24′-carbonyl-5′β-cholan)-propyl)-20(S)-camptothecin] | 3.2 | – | 7.4 | 3 | –
13 | CC[C@@]1(O)C(=O)OCc2c1cc1n(c2=O)Cc2cc3cc(OCCCOC(=O)CCC(C)C4CCC5C6CCC7C[C@H](O)CCC7C6C[C@H](O)C45)ccc3nc2-1 (stereo partly drawn) [Compound H2, 10-O-(3-O-(3′α,12′α-Dihydroxy-24′-carbonyl-5′β-cholan)-propyl)-20(S)-camptothecin] | 2.74 | – | 0.8 | 2.5 | Mice Number End of Study ([5]; dose 18.82 × 3 µmol/kg i.p.): 3; Body Weight (g) End of Study ([5]; dose 18.82 × 3 µmol/kg i.p., start of study 22.1 g): 21.1 g; Mice Number End of Study ([5]; dose 37.64 × 3 µmol/kg i.p.): 4; Body Weight (g) End of Study ([5]; dose 37.64 × 3 µmol/kg i.p., start of study 21.9 g): 18.2 g; Mice Number End of Study ([5]; dose 56.46 × 3 µmol/kg i.p.): 3; Body Weight (g) End of Study ([5]; dose 56.46 × 3 µmol/kg i.p., start of study 21.6 g): 20.0 g; TIR (%) (H22 mouse liver tumours; dose 18.82 × 3 µmol/kg): 13.27%; TIR (%) (H22 mouse liver tumours; dose 37.64 × 3 µmol/kg): 57.99%; TIR (%) (H22 mouse liver tumours; dose 56.46 × 3 µmol/kg): 61.19%; half-life at 97.6 µM [4]: > 24 h
14 | CC[C@@]1(O)C(=O)OCc2c1cc1n(c2=O)Cc2cc3cc(OCCCOC(=O)CCC(C)C4CCC5C4CCC4C6CC[C@@H](O)CC6C[C@H](O)C45)ccc3nc2-1 (stereo partly drawn) [Compound H3, 10-O-(3-O-(3′α,7′β-Dihydroxy-24′-carbonyl-5′β-cholan)-propyl)-20(S)-camptothecin] | 3.34 | – | 0.8 | 2.8 | –
15 | CC[C@@]1(O)C(=O)OCc2c1cc1n(c2=O)Cc2cc3cc(OCCCOC(=O)CCC(C)C4CCC5C4CCC4C6CC[C@@H](O)CC6C[C@@H](O)C45)ccc3nc2-1 (stereo partly drawn) [Compound H4, 10-O-(3-O-(3′α,7′α-Dihydroxy-24′-carbonyl-5′β-cholan)-propyl)-20(S)-camptothecin] | 2.18 | – | 1.4 | 30 | –
